# According to the supplement of paper PMC11061612:
# Assays:
# [1] = tested on: RKN (Other Solid Carcinomas); experiment: Bliss excess, mean over the matrix (fraction); higher = more synergy
# Method in brief: (§1)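 Cell lines grown in DMEM/F12 or RPMI with 10% FBS were plated in 1536-well plates and held 24 hours at 37°C, 5% CO2 before 72 hours of exposure to two-drug dose matrices, with DMSO typically at 0.2%. CellTiter-Glo 2.0 luminescence gave viability, which was converted to inhibition. Vehicle wells were set to 0 and blank wells to 1. Combination Emax is the second-highest inhibition in the matrix, and Bliss excess is the observed combination effect minus the expected EA + EB − EA·EB, where EA and EB are the single-agent effects.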
# SF539 (Glioblastoma) = experiment: as above
# Method in brief: as §1
# GB-1 (Glioblastoma) = experiment: as above
# Method in brief: as §1
# [2] = tested on: KE-37 (T-Lymphoblastic Leukemia); experiment: combination Emax (second highest fraction inhibited in the dose matrix, 72 h); higher = more inhibition; extreme values may be limits of the assay
# Method in brief: as §1
# [3] = tested on: MFE-280 (Endometrial Carcinoma); experiment: as above
# Method in brief: as §1
# [4] = tested on: RERF-GC-1B (Gastric Carcinoma); experiment: as above
# Method in brief: as §1
# [5] = tested on: RCM-1 (Colorectal Carcinoma); experiment: as above
# Method in brief: as §1
# [6] = tested on: PC-3_[JPC-3] (Lung Adenocarcinoma); experiment: as above
# Method in brief: as §1
# [7] = tested on: NCI-H446 (Small Cell Lung Carcinoma); experiment: as above
# Method in brief: as §1
# [8] = tested on: CAL-62 (Thyroid Gland Carcinoma); experiment: as above
# Method in brief: as §1
# [9] = tested on: VAL (B-Cell Non-Hodgkin's Lymphoma); experiment: as above
# Method in brief: as §1
# [10] = tested on: COLO-680N (Esophageal Squamous Cell Carcinoma); experiment: as above
# Method in brief: as §1
# SF268 (Low Grade Glioma) = experiment: as above
# Method in brief: as §1
# A2058 (Melanoma) = experiment: as above
# Method in brief: as §1
# [11] = tested on: OVMIU (Ovarian Carcinoma); experiment: as above
# Method in brief: as §1
# [12] = tested on: NCI-H2342 (Lung Adenocarcinoma); experiment: as above
# Method in brief: as §1
# WM793B (Melanoma) = experiment: as above
# Method in brief: as §1
# [13] = tested on: PANC-03-27 (Pancreatic Carcinoma); experiment: as above
# Method in brief: as §1
# [14] = tested on: MKN45 (Gastric Carcinoma); experiment: as above
# Method in brief: as §1
# [15] = tested on: CAL-120 (Breast Carcinoma); experiment: as above
# Method in brief: as §1
# 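Throughout, for Bliss excess, mean over the matrix: after 72 h of two-drug dosing.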
Structure (SMILES),Bliss excess [1],Bliss excess (SF539 (Glioblastoma)),Bliss excess (GB-1 (Glioblastoma)),combination Emax [2],combination Emax [3],combination Emax [4],combination Emax [5],combination Emax [6],combination Emax [7],combination Emax [8],combination Emax [9],combination Emax [10],combination Emax (SF268 (Low Grade Glioma)),combination Emax (A2058 (Melanoma)),combination Emax [11],combination Emax [12],combination Emax (WM793B (Melanoma)),combination Emax [13],combination Emax [14],combination Emax [15]
"CC1(C)CCC(CN2CCN(c3ccc(C(=O)NS(=O)(=O)c4ccc(NCC5CCOCC5)c([N+](=O)[O-])c4)c(Oc4cnc5[nH]ccc5c4)c3)CC2)=C(c2ccc(Cl)cc2)C1 [Venetoclax] + C1CN(CCC1(C(=O)N[C@@H](CCO)C2=CC=C(C=C2)Cl)N)C3=NC=NC4=C3C=CN4 [Capivasertib] (first compound max 1 µM, 7x7, partner max 3 µM)",-0.0469,-0.0189,-0.0038,0.695,0.512,0.335,0.367,0.168,0.561,0.172,1,0.0815,0.273,0.323,0.285,0.248,0.295,0.626,0.581,0.227
"COc1cccc2c1C(=O)c1c(O)c3c(c(O)c1C2=O)C[C@@](O)(C(=O)CO)C[C@@H]3O[C@H]1C[C@H](N)[C@H](O)[C@H](C)O1 [Doxorubicin] + Cc1cc2ncnn2cc1Nc1ncc2c(n1)n(C1CCOCC1)c(=O)n2C [AZD7648] (first compound max 1 µM, 7x7, partner max 10 µM)",0.0697,0.0403,0.0165,1,0.835,0.779,0.605,0.57,0.923,0.817,1,0.67,0.538,0.583,0.861,0.349,0.801,0.686,0.821,0.47
"CC1(C)CCC(CN2CCN(c3ccc(C(=O)NS(=O)(=O)c4ccc(NCC5CCOCC5)c([N+](=O)[O-])c4)c(Oc4cnc5[nH]ccc5c4)c3)CC2)=C(c2ccc(Cl)cc2)C1 [Venetoclax] + Cn1cnc2c(F)c(Nc3ccc(Br)cc3Cl)c(C(=O)NOCCO)cc21 [Selumetinib] (first compound max 1 µM, 7x7, partner max 3 µM)",-0.0034,0.0003,-0.0366,0.352,0.18,0.27,0.571,0.173,0.198,0.256,1,0.159,0.157,0.493,0.479,0.193,0.42,0.684,0.65,0.106
"C=CCn1c(=O)c2cnc(Nc3ccc(N4CCN(C)CC4)cc3)nc2n1-c1cccc(C(C)(C)O)n1 [AZD1775] + O=C(c1cc(Cc2n[nH]c(=O)c3ccccc23)ccc1F)N1CCN(C(=O)C2CC2)CC1 [Olaparib] (first compound max 1 µM, partner max 10 µM)",-0.0138,0.0258,-0.0537,1,0.601,0.693,0.518,0.458,0.778,0.796,0.816,0.283,0.251,0.284,0.569,0.229,0.501,0.928,0.775,0.396
"Cc1c2c(nn1C)CSCc1cc(n(C)n1)CSc1cc(c3ccccc3c1)OCCCc1c(C(=O)O)n(C)c3c-2c(Cl)ccc13 [AZD5991] + CCN(CCO)CCCOc1ccc2c(Nc3cc(CC(=O)Nc4cccc(F)c4)[nH]n3)ncnc2c1 [AZD2811] (first compound max 1 µM, 7x7, partner max 1 µM)",-0.0015,0.0184,-0.0318,1,0.482,0.998,0.347,0.274,0.926,0.237,0.909,0.211,0.472,0.919,0.283,0.427,0.374,0.517,0.408,0.21
"COc1cc2ncnc(Nc3ccc(F)c(Cl)c3)c2cc1OCCCN1CCOCC1 [Gefitinib] + CC(C)n1c(=O)n(C)c2cnc3cc(F)c(-c4ccc(OCCCN5CCCCC5)nc4)cc3c21 [AZD1390] (first compound max 10 µM, 7x7, partner max 0.3 µM)",-0.0646,-0.0347,-0.0815,0.357,0.246,0.265,0.41,0.67,0.314,0,0.527,0.213,0.155,0.119,0.532,0.0812,0.142,0.373,0.14,0.14
"CC1(C)CCC(CN2CCN(c3ccc(C(=O)NS(=O)(=O)c4ccc(NCC5CCOCC5)c([N+](=O)[O-])c4)c(Oc4cnc5[nH]ccc5c4)c3)CC2)=C(c2ccc(Cl)cc2)C1 [Venetoclax] + C[C@@H](Nc1cc(F)cc(F)c1)c1cc(C(=O)N(C)C)cc2c(=O)cc(N3CCOCC3)oc12 [AZD8186] (first compound max 1 µM, 7x7, partner max 3 µM)",-0.0289,-0.0062,-0.0076,0.356,0.371,0.103,0.28,0.298,0.581,0.119,1,0.111,0.127,0.158,0.575,0.265,0.36,0.592,0.602,0.12
